Test results reported in patent US10533018B2, “Antimicrobial prochelators to target drug-resistant bacteria and methods of making and using the same” (Duke University, priority 2015, dated 2020).
Read-outs that look alike come from different tables or passages of the source.

Assays:
[1] = system: clinical isolates of Klebsiella pneumonia (Klebs); experiment: Broth microdilution in Klebs clinical isolates; assay type: cell-based; details: Klebsiella pneumoniae, LB broth, read-out: IC50
Text: (§1) Bacterial culture reagents including LB broth (Lennox), agar-agar, ampicillin, and ceftriaxone were purchased from Sigma Aldrich Corp. The Escherichia coli (E. coli) K12 strain HB101 and pGLO E. coli transformation kit purchased from Bio-Rad Laboratories Inc. HB101 was transformed with the bla gene via the pGLO plasmid. The bla gene encodes for a TEM-1 β-lactamase that imparts penicillin resistance to the mutant E. coli K-12 strain (+Bla). Strains E. coli UTI89, [27] pCOM-GFP-transformed E. coli UTI89 (pCOM-GFP), [28] and Methicillin-Resistant Staphylococcus aureus (MRSA) clone USA300 [29] have been previously described. The Extended-Spectrum β-Lactamase (ESBL) E. coli, Klebsiella pneumonia (Klebs), and Pseudomonas aeruginosa (Pseudo) strains were clinical isolates acquired deidentified from Duke Hospital and tested for antibiotic susceptibility in the Clinical Microbiology Laboratory using standard clinical susceptibility methods.
(§2) Cultures were incubated on LB (Lennox, Sigma) agar at 37° C. in ambient atmospheric composition. Before beginning an experiment, a single bacterial colony grown on LB agar was resuspended in 2 mL LB broth and incubated overnight to form a turbid cell suspension. The overnight culture was diluted 1:100 in LB and used immediately as the working culture. To assess the antibacterial activity of compounds, the working bacterial culture was aliquoted in a clear, flat-bottomed, 96-well polystyrene plate (Costar) and the compound of interest was added in 2-fold serial dilution from 500 to 1 μM. Plates were covered with a breathable sealing film (Aeroseal, Genesee Scientific) and incubated at 37° C. in ambient atmospheric composition with shaking at 200 rpm. Optical density at 600 nm was recorded after 4 h and 20 h for each well using a standard OD600 protocol with LB serving as the blank. The resulting dose-response curves were fit to a nonlinear regression in GraphPad Prism Version 6 to calculate the IC50 of DB4-51 in each strain.

[2] = system: Klebsiella pneumonia (Klebs); experiment: Broth microdilution growth inhibition (OD600); assay type: cell-based; details: for IC50: Klebsiella pneumoniae
Text: as §1, §2
(§3) The ability of DB4-162 to inhibit bacterial growth was assessed by a traditional broth microdilution method that assesses the turbidity of liquid cultures in the presence of varying concentrations of the compound. As described above for DB4-51, the antibacterial properties of the prochelator DB4-162 were assessed in non-pathogenic lab-strain HB101K-12 E. coli and compared to the pGLO-transfected mutant HB101K-12 E. coli that express β-lactamase. Clinically relevant pathogenic bacteria were also screened, including UTI89 E. coli, pCOM transfected UTI89 E. coli (pCOM), extended spectrum β-lactamase (ESBL) E. coli, methicillin-resistant Staphylococcus aureus (MRSA), and Klebsiella pneumonia (Klebs). In addition to being naturally resistant to many β-lactam antibiotics, MRSA can produce a number of β-lactamases. […] It should be noted that all of the bacteria tested are gram-negative except for gram-positive MRSA.
(§4) The goal of this screen was to calculate the IC50 of the prochelator in a series of pathogenic bacteria and compare these values to the IC50 of known antibiotics in those same strains to determine the relative effectiveness of DB4-162 against the drug-resistant and drug-susceptible bacteria in comparison to current antibiotic treatment options. Bacterial growth was monitored in LB broth at 37° C. in the presence and absence of DB4-162 for 20 hours. A concentration gradient of DB4-162 from 500 to 0 μM was used to screen all 7 strains of bacteria and the dose-response curves were fit to a […] to calculate the IC50 of DB4-162 in each strain. These IC50 values are an approximation of how effectively DB4-162 inhibits the growth of each bacterial strain in vitro.
(§5) IC50 values for ampicillin were calculated via broth microdilution in LB broth only. Values are listed as the mean followed by the 95% confidence interval about the mean. Mean and confidence intervals were calculated from a variable slope, nonlinear regression fit to the dose-response OD600 data. […]

[3] = system: UTI89 E. coli; experiment: Broth microdilution growth inhibition (OD600); assay type: cell-based, Escherichia coli; details: for IC50: Escherichia coli, UTI89 E. coli
Text: as §1, §2, §3, §4, §5

[4] = system: +Bla K-12 E. coli; experiment: microbe, parasite or virus in culture; assay type: cell-based, Escherichia coli; details: for IC50: Escherichia coli, +Bla K-12 E. coli
Text: as §1, §2, §3, §4, §5

[5] = system: ESBL E. coli; experiment: microbe, parasite or virus in culture; assay type: cell-based, Escherichia coli; details: Escherichia coli, ESBL E. coli; LB broth
Text: as §1, §2, §3, §4, §5

[6] = system: pCOM E. coli; experiment: microbe, parasite or virus in culture; assay type: cell-based, Escherichia coli; details: Escherichia coli, pCOM E. coli
Text: as §1, §2, §3, §4, §5

[7] = system: −Bla K-12 E. coli; experiment: microbe, parasite or virus in culture; assay type: cell-based, Escherichia coli; details: for IC50: Escherichia coli, −Bla K-12 E. coli, read-out: IC50
Text: as §1, §2, §3, §4, §5

[8] = system: Methicillin-Resistant Staphylococcus aureus (MRSA); experiment: microbe, parasite or virus in culture; assay type: cell-based; details: for IC50: Staphylococcus aureus
Text: as §1, §2, §3, §4, §5

[9] = Calcein fluorescence assay for Cu competition; assay type: physicochemical; details: 2 μM calcein + 2.4 μM CuCl2, pH 7.4 PBS; 20 μM (10 equivalents) compound alone; 1 h
Experimental: FIG. 11: To solutions of 2 μM calcein in pH 7.4 PBS was added 2.4 μM CuCl2 and the samples were fully equilibrated at room temperature for 2 hours. Next, 20 μM TAT, 20 μM DB4-162, 0.1 units/mL β-lactamase were added and the fluorescence at 500 nm was recorded after one hour.
A calcein fluorescence assay for metal competition was utilized in order to evaluate the relative metal-binding affinity of DB4-51 compared to PT. The fluorescence intensity of the probe calcein is quenched by more than 90% upon binding Cu^2+. […] However, when incubated with 10 equivalents of DB4-51 and 0.1 units/mL Type III β-lactamase from Enterobacter cloacae, there is an 85% return in calcein fluorescence, which correlates well with the 90% return observed for PT itself at the same concentration.
FIG. 4: Relative Cu binding assay with DB4-51 and PT against calcein. Solutions of 2 μM calcein and 2.4 μM CuCl2 in pH 7.4 PBS were equilibrated at room temperature for 2 hours prior to addition of 20 μM PT, 20 μM DB4-51, and/or 0.1 units/mL β-lactamase (Bla).
The calcein assay was utilized in order to assess the relative copper chelating ability of the prochelator and TAT. The fluorescence emission of calcein is quenched by more than 90% in the presence of 1.2 equivalents of CuCl2 (FIG. 11). […] The addition of 0.1 units/mL β-lactamase alone has no effect on the quenched fluorescence signal of the Cu-calcein solution. […] However, when incubated with 10 equivalents of DB4-162 and 0.1 units/mL β-lactamase there is a 90% return in calcein fluorescence. […] While it is unclear why 10 equivalents of TAT are insufficient to out-compete calcein for copper, it may be related to the propensity of TAT to form other species in aqueous media.

[10] = system: E. coli; assay type: cell-based; details: high concentrations (>125 μM)
Text: Further evidence for the influence of bioavailable copper on the IC50 of DB4-51 was obtained by using a checkerboard assay. […] Serial dilutions of DB4-51 in LB were arrayed against dilutions of chelator (BCS and EDTA). The antagonism exists between our prochelator, DB4-51, and the strong, extracellular chelators BCS and EDTA. […] However, at lower concentrations, EDTA works antagonistically with DB4-51 by restoring bacterial growth. This trend further underscores the influence that copper and potentially other metals have on the growth inhibitory activity of DB4-51.

[11] = system: susceptible E. coli HB101 K-12 (no β-lactamase); experiment: Broth microdilution (preliminary, Table 1), susceptible K-12; assay type: cell-based, Escherichia coli; details: Escherichia coli; Susceptable K-12 E. coli; LB; OD600; preliminary results
Experimental: (§6) In order to determine the antibiotic activity of DB4-51, a debilitated strain of Escherichia coli (HB101 K-12) was transformed with the pGLO plasmid from Bio-Rad in order to express β-lactamase. This transformation was confirmed by growing on a selective medium containing 100 μg/ml ampicillin in Lennox LB with 1.5% agar. A broth microdilution assay was employed to determine the relative activity of DB4-51 against susceptible (HB 101 K-12, no β-lactamase) and resistant (HB 101 K-12 transformed to express β-lactamase) E. coli. Using Lennox LB as the medium. serial dilutions of the test compounds were performed in a 96-well plate and then inoculated with E. coli before incubating for 16-20 hours at 35° C. The bacterial growth was monitored by recording each well's absorbance at 600 nm (OD600.) The OD600 values of E. coli suspensions incubated with various compounds were compared in order to assess their activities.
(§7) FIG. 7: OD600 of susceptible and resistant K-12 E. coli cultures against DB4-51 and known antibiotics as a function of concentration. Ampicillin has a penicillin core and cephalexin has a cephalosporin core. Cultures were grown in LB broth at 37° C. while shaking at 200 rpm for 18 hours and then diluted to an OD600 of 0.005 before adding the compounds. Plates were grown at 35° C. while shaking at 200 rpm and the OD600 was recorded after 18 hours.
(§8) Table 1: Calculated IC50 values for DB4-51, cephalexin, ampicillin, and pyrithione. These values were derived by fitting the data to a log dose-response curve and reporting the concentration corresponding to half the maximum OD600 value for each compound.

[12] = system: resistant E. coli HB101 K-12 transformed to express β-lactamase; experiment: microbe, parasite or virus in culture; assay type: cell-based, Escherichia coli; details: Escherichia coli
Experimental: as §6, with “Using Lennox LB as the medium. serial dilutions of the test compounds were performed in a 96-well plate and then inoculated with E. coli before incubating for 16-20 hours at 35° C.” left out
as §7, with “Plates were grown at 35° C. while shaking at 200 rpm and the OD600 was recorded after 18 hours.” left out
as §8

Compound: CO/N=C(\C(=O)N[C@@H]1C(=O)N2C(C(=O)O)=C(CSc3nc(=O)c(=O)[nH]n3C)CS[C@H]12)c1csc(N)n1 [Ceftriaxone]
- IC50 ([1]; Klebs Isolate 1): 0.4 µM
- IC50 ([1]; Klebs Isolate 2): 0.7 µM
- IC50 ([1]; Klebs Isolate 3): 2 µM
- IC50 ([1]; Klebs Isolate 4): 1 µM
- IC50 ([1]; Klebs Isolate 5): 0.1 µM
- IC50 ([1]; Klebs Isolate 6): 0.3 µM
- IC50 ([1]; Klebs Isolate 7): 0.3 µM
- IC50 ([1]; Klebs Isolate 8): 0.1 µM
- IC50 ([1]; Klebs Isolate 9): 73 µM
- IC50 ([1]; Klebs Isolate 10): 0.03 µM
- IC50 ([1]; Klebs Isolate 11): 0.01 µM
- IC50 ([1]; Klebs Isolate 12): 0.1 µM
- IC50 ([1]; Klebs Isolate 13): 1 µM

Compound: Cc1csc(=S)n1O [TAT, 3-hydroxy-4-methyl-2(3H)-thiazolethione]
- IC50 ([2]; LB + 10 μM CuCl2): 26 µM
- IC50 ([2]; LB + 500 μM BCS): 51 µM
- IC50 ([2]; LB broth): 14 µM
- IC50 ([3]; LB + 10 μM CuCl2): 9 µM
- IC50 ([3]; LB + 500 μM BCS): 38 µM
- IC50 ([3]; LB broth): 6 µM
- IC50 ([4]; LB + 10 μM CuCl2): 38 µM
- IC50 ([4]; LB + 500 μM BCS): 70 µM
- IC50 ([4]; LB broth): 36 µM
- IC50 [5]: 41 µM
- IC50 ([6]; LB + 10 μM CuCl2): 7 µM
- IC50 ([6]; LB + 500 μM BCS): 28 µM
- IC50 ([6]; LB broth): 6 µM
- IC50 ([7]; LB + 10 μM CuCl2): 36 µM
- IC50 ([7]; LB + 500 μM BCS): 70 µM
- IC50 ([7]; LB broth): 23 µM
- IC50 ([8]; LB + 10 μM CuCl2): 10 µM
- IC50 ([8]; LB + 500 μM BCS): 29 µM
- IC50 ([8]; LB broth): 23 µM
- return in calcein fluorescence [9]: 30%

Compound: O=C(O)CN(CCN(CC(=O)O)CC(=O)O)CC(=O)O [EDTA, Ethylenediaminetetraacetic acid]
- effect on bacterial growth [10]: some inhibition of bacterial growth

Compound: [Cl][Cu][Cl] [CuCl2]
- reduction of growth ([2]; concentrations up to 500 μM): less than 20%
- reduction of growth ([3]; UTI89, concentrations up to 500 μM): less than 20%
- increase of growth ([4]; K-12 E. coli (+Bla), 10 μM supplemental CuCl2): 5-20%
- increase of growth ([7]; K-12 E. coli (−Bla), 10 μM supplemental CuCl2): 5-20%
- reduction of growth ([8]; concentrations up to 500 μM): less than 20%

Compound: CC1=C(C(=O)O)N2C(=O)[C@@H](NC(=O)[C@H](N)c3ccccc3)[C@H]2SC1 [Cephalexin]
- IC50 [11]: 26 µM
- IC50 [12]: 33 µM
